Assay results reported in ChEMBL document CHEMBL1157831, “Chemical epigenetics alters the secondary metabolite composition of guttate excreted by an atlantic-forest-soil-derived Penicillium citreonigrum” (2010).

Columns and labels:
Salmonella enterica = assay: Antimicrobial activity against Salmonella typhimurium at 100 ug/disk after 10 hrs by disc-diffusion assay; type: functional, Salmonella enterica subsp. enterica serovar Typhimurium; conditions: read-out: IZ
Streptococcus pyogenes = assay: Antimicrobial activity against Streptococcus pyogenes at 100 ug/disk after 10 hrs by disc-diffusion assay; type: functional; conditions: read-out: IZ
Escherichia coli [1] = assay: Antimicrobial activity against Escherichia coli at 100 ug/disk after 10 hrs by disc-diffusion assay; type: functional; conditions: read-out: IZ
Staphylococcus aureus [2] = assay: Antimicrobial activity against Staphylococcus aureus ATCC 700787 at 100 ug/disk after 10 hrs by disc-diffusion assay; type: functional; conditions: ATCC 700787, 10 h, read-out: IZ
Pichia kudriavzevii [3] = assay: Antifungal activity against Candida krusei ATCC 27803 at 15 ug in 6 mm after 10 hrs by disc-diffusion assay; type: functional; conditions: ATCC 27803, 10 h, read-out: IZ
Candida tropicalis [4] = assay: Antifungal activity against Candida tropicalis ATCC 12968 at 15 ug in 6 mm disk after 10 hrs by disc-diffusion assay; type: functional; conditions: ATCC 12968, 10 h, read-out: IZ
Candida albicans [5] = assay: Antifungal activity against Candida albicans ATCC 12983 at 15 ug in 6 mm disk after 10 hrs by disc-diffusion assay; type: functional; conditions: ATCC 12983, 10 h, read-out: IZ
Candida parapsilosis [6] = assay: Antifungal activity against Candida parapsilosis ATCC 12969 at 15 ug in 6 mm disk after 10 hrs by disc-diffusion assay; type: functional; conditions: Lodderomyces parapsilosis, ATCC 12969, 10 h; read-out: IZ
Nakaseomyces glabratus = assay: Antifungal activity against Candida glabrata NRRL Y-65 at 15 ug in 6 mm disk after 10 hrs by disc-diffusion assay; type: functional; conditions: NRRL Y-65, 10 h, read-out: IZ
Candida tropicalis [7] = assay: Antifungal activity against Candida tropicalis ATCC 12968 at 30 ug in 6 mm disk after 10 hrs by disc-diffusion assay; type: functional; conditions: ATCC 12968, 10 h, read-out: IZ
[8] = test system: Staphylococcus epidermidis; assay: Antimicrobial activity against Staphylococcus epidermidis ATCC 12228 at 30 ug in 6 mm disk after 10 hrs by disc-diffusion assay; type: functional; conditions: ATCC 12228, 10 h, read-out: IZ
Pichia kudriavzevii [9] = assay: Antifungal activity against Candida krusei ATCC 27803 at 30 ug in 6 mm disk after 10 hrs by disc-diffusion assay; type: functional; conditions: ATCC 27803, 10 h, read-out: IZ
Candida albicans [10] = assay: Antifungal activity against Candida albicans ATCC 12983 at 30 ug in 6 mm disk after 10 hrs by disc-diffusion assay; type: functional; conditions: ATCC 12983, 10 h, read-out: IZ
Candida parapsilosis [11] = assay: Antifungal activity against Candida parapsilosis ATCC 12969 at 30 ug in 6 mm disk after 10 hrs by disc-diffusion assay; type: functional; conditions: Lodderomyces parapsilosis, ATCC 12969, 10 h; read-out: IZ
Klebsiella pneumoniae = assay: Antimicrobial activity against Klebsiella pneumoniae ATCC 33495 at 15 ug in 6 mm disk after 10 hrs by disc-diffusion assay; type: functional, organism-based
Staphylococcus aureus [12] = assay: Antimicrobial activity against Staphylococcus aureus ATCC 700787 at 15 ug in 6 mm disk after 10 hrs by disc-diffusion assay; type: functional, organism-based
Pseudomonas aeruginosa = assay: Antimicrobial activity against Pseudomonas aeruginosa ATCC 10145 at 15 ug in 6 mm disk after 10 hrs by disc-diffusion assay; type: functional, organism-based
Burkholderia cepacia = assay: Antimicrobial activity against Burkholderia cepacia ATCC 25608 at 15 ug in 6 mm disk after 10 hrs by disc-diffusion assay; type: functional, organism-based
[13] = test system: Staphylococcus epidermidis; assay: Antimicrobial activity against Staphylococcus epidermidis ATCC 12228 at 15 ug in 6 mm disk after 10 hrs by disc-diffusion assay; type: functional, organism-based
Acinetobacter baumannii = assay: Antimicrobial activity against Acinetobacter baumannii ATCC 19606 at 15 ug in 6 mm disk after 10 hrs by disc-diffusion assay; type: functional, organism-based
Escherichia coli [14] = assay: Antimicrobial activity against Escherichia coli ATCC 11775 at 15 ug in 6 mm disk after 10 hrs by disc-diffusion assay; type: functional, organism-based
Enterobacter cloacae = assay: Antimicrobial activity against Enterobacter cloacae ATCC 13047 at 15 ug in 6 mm disk after 10 hrs by disc-diffusion assay; type: functional, organism-based

C/C=C(/C(=O)O)N1C(=O)C=C(C)C1=O [PENCOLIDE]
13 mm: zone of inhibition at 100 µg/disc (Salmonella enterica) | zone of inhibition at 100 µg/disc (Streptococcus pyogenes) | zone of inhibition at 100 µg/disc (Escherichia coli [1]) | zone of inhibition at 100 µg/disc (Staphylococcus aureus [2])

CC(=O)N1CCN(c2ccc(OCC3COC(Cn4ccnc4)(c4ccc(Cl)cc4Cl)O3)cc2)CC1 (stereo not drawn) [KETOCONAZOLE]
15 mm: zone of inhibition at 15 µg/disc (Pichia kudriavzevii [3]) | zone of inhibition at 15 µg/disc (Candida tropicalis [4]) | zone of inhibition at 15 µg/disc (Candida albicans [5]) | zone of inhibition at 15 µg/disc (Candida parapsilosis [6]) | zone of inhibition at 15 µg/disc (Nakaseomyces glabratus)

CC[C@H](C)/C=C(C)/C=C/C1=CC2=C(Cl)C(=O)[C@](C)(OC(C)=O)C(=O)C2=CN1 [SCLEROTIORAMINE]
7 mm: zone of inhibition at 30 µg/disc (Candida parapsilosis [11])
8 mm: zone of inhibition at 30 µg/disc (Candida tropicalis [7]) | zone of inhibition at 30 µg/disc [8] | zone of inhibition at 30 µg/disc (Pichia kudriavzevii [9]) | zone of inhibition at 30 µg/disc (Candida albicans [10])

GENTAMICIN
8 mm: inhibition zone (IZ) (Klebsiella pneumoniae) | inhibition zone (IZ) (Staphylococcus aureus [12]) | inhibition zone (IZ) (Pseudomonas aeruginosa) | inhibition zone (IZ) (Burkholderia cepacia) | inhibition zone (IZ) [13] | inhibition zone (IZ) (Acinetobacter baumannii) | inhibition zone (IZ) (Escherichia coli [14]) | inhibition zone (IZ) (Enterobacter cloacae)

CC[C@H](C)/C=C(C)/C=C/C1=CC2=C(Cl)C(=O)[C@](C)(OC(C)=O)C(=O)C2=CO1 [SCLEROTIORIN]
8 mm: zone of inhibition at 30 µg/disc [8]
